Tests used:
[1] = target: His6‐FraB (Salmonella FraB deglycase) (Salmonella enterica subsp. enterica serovar Typhimurium, UniProt Q8ZLD0); assay: FraB-G6PD coupled assay, Michaelis–Menten analysis for K I and mode of inhibition; format: biochemical
Method: To determine the K I of each inhibitor, 29 μL of master mix was added to two rows of a 384‐well Greiner plate, using a single‐channel pipette, and incubated at 20 °C for 20 min. A 12‐channel pipette was then used to transfer and mix 1 μL of varying [6‐P‐F‐Asp] to all 48 wells. The final reaction (30 μL) consisted of 25 mM HEPES pH 8.0 at 20 °C, 5 mM MgCl2, 0.1 mM EGTA, 0.5 mM NAD^+, 1 mU G6PD, 100 nM His6‐FraB, varying (6‐P‐F‐Asp) (between 8 and 12 concentrations), and varying [inhibitor] (between three and five concentrations) in 10% (v/v) DMSO. NADH fluorescence was monitored every 10 s for 10 min total on a SPARK® multi‐mode multiplate reader (Tecan), as described above, and plotted against time. Slopes of the linear range of each curve were converted to initial velocities, as described above, that were then plotted against [6‐P‐F‐Asp]. A hyperbolic curve was then fitted to the data to obtain the k cat and K m values according to the formula: v o = (V max × [S])/(K m + [S]).
To determine the correlation between the observed and expected initial velocities (Fig. S5A), these values were exported from Kaleidagraph, plotted against one another, and a curve was fit using the formula: y = mx + b. The differences between observed and expected initial velocities (residuals) were then depicted as box‐and‐whisker plots (Fig. S5B). Lineweaver‐Burk plots were generated by graphing 1/v o versus 1/[S] and curves were fit to the data with Kaleidagraph using the formula: 1/v o = (Km/V max).(1/[S]) + (1/V max). The k cat and K m parameters were then converted into α′ values by dividing the k cat of the control (no inhibitor) by either itself (α′= 1) or the k cat of test samples with variable [inhibitor]. Those α′ values were plotted against [inhibitor] and K I values were determined from the equation α = 1 + [I]/K I.
The initial velocities used to generate the Michaelis–Menten plots were also employed to obtain the IC50 vs [S]/K m plots. For a given [S], initial velocities were converted into relative activities and plotted versus [inhibitor]. […] The IC50 values determined from the IC50 vs [S]/K m plots were then used to plot 1/IC50 versus v o/V max. A curve was fit to the data using the formula: y = mx + b. The Y‐intercept of the 1/IC50 versus v o/V max plot is equal to 1/K IC, and the slope, for mixed inhibitors, is equal to 1/K IU – 1/K IC. […] Data analyses were performed as described above (see Tables S1–S7 for curve‐fit errors and goodness‐of‐fit values).

[2] = target: FraB (Salmonella enterica subsp. enterica serovar Typhimurium, UniProt Q8ZLD0); assay: Native MS of FraB–inhibitor complexes; format: binding
Method: For MS analysis, FraB was buffer exchanged into 200 mM ammonium acetate (AmAc) (Sigma‐Aldrich) or 66.7 mM ethylenediaminediacetic acid (EDDA) (Sigma‐Aldrich) using micro Bio‐spin P6 spin columns (Bio‐Rad); AmAc and EDDA concentrations were chosen to ensure the same ionic strength. The pH was adjusted to 7.5 by adding ammonium hydroxide solution (Sigma‐Aldrich). 6‐P‐F‐Asp was diluted with water, while three different inhibitors [3470:A09, 3469:F02, and 3469:N17, all purchased from either ChemDiv (San Diego, CA, USA) or Ambinter (Orléans, France)] were diluted in DMSO. The final concentration of DMSO used in the native MS experiments was 4.8% (v/v) or 1% (v/v) for the compounds obtained from ChemDiv or Ambinter, respectively.
For the characterization of FraB–inhibitor complexes, the protein was diluted into 200 mM AmAc and then mixed with inhibitors to final concentrations of 3 μM FraB and 120 μM inhibitor. After adding the inhibitors, the FraB–inhibitor complex was incubated for 20 min at 20 °C before injecting into the mass spectrometry (MS). For the characterization of FraB–inhibitor–substrate complexes, FraB was diluted into 66.7 mM EDDA, mixed with inhibitors, incubated at 20 °C for 20 min, and subsequently mixed with 6‐P‐F‐Asp. The final concentrations were as follows: 3 μM FraB (monomer concentration), 120 μM inhibitor, and 600 μM 6‐P‐F‐Asp.
Native MS experiments were performed on Thermo Q Exactive ultra high mass range (UHMR) Orbitrap. Samples were introduced into the MS instrument by nano‐electrospray ionization, which using glass capillary tips pulled in‐house using a P‐97 micropipette puller (Sutter Instruments, Novato, CA, USA). Each sample (3–5 μL) was loaded into the tips, and the electrospray voltage was set between 0.6 and 1.0 kV. The mass spectrometer was operated in positive mode using the following tuning settings: Capillary temperature: 200 °C detector optimization: low m/z; ion transfer target: high m/z; in‐source trapping (IST): 50 V, except when applying higher IST to disrupt the FraB–inhibitor interactions; HCD trap gas flow: 5; Resolution: 12 500. Mass spectra were collected after the spray stabilized (typically < 5 min) and then examined using XCalibur 4.1 (Thermo Scientific), and deconvolved using UniDec software.

Chain of FraB (Q8ZLD0 entry or part of it): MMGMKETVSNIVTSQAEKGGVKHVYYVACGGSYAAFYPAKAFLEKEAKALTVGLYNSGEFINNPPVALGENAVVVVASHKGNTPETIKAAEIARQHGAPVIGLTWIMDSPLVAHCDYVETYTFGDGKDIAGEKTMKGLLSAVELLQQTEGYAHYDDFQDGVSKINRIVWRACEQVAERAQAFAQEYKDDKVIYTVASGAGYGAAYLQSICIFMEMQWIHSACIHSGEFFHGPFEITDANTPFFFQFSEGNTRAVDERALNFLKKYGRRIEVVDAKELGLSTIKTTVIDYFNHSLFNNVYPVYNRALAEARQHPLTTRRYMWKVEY
Chain of His6‐FraB (Salmonella FraB deglycase) (Q8ZLD0 entry or part of it): as above

SMILES: Fc1ccc(-c2nn3c(-c4ccccn4)nnc3s2)cc1 [3469:N17, 6‐(4‐fluorophenyl)‐3‐pyridin‐2‐yl‐[1,2,4]triazolo[3,4‐b][1,3,4]thiadiazole]
- change of IC50 values with increasing [S]/K m ([1]; 'this trend' = IC50 does not vary with [S]/K m, change evident only from 0.2 to 1.6× [S]/K m): modest decrease
- slope in plots of 1/IC50 vs. v o/V max ([1]; Fig. S12): weakly positive
- IC50 ([1]; IC50 (IC50 versus [S]/Km plots), Trial 1, 6-P-F-Asp 7.38 µM, S/Km 0.175714, unit from Fig. S11 axis): 47.9 µM
- IC50 ([1]; IC50 (IC50 versus [S]/Km plots), Trial 1, 6-P-F-Asp 15.7 µM, S/Km 0.37381, unit from Fig. S11 axis): 45.4 µM
- IC50 ([1]; IC50 (IC50 versus [S]/Km plots), Trial 1, 6-P-F-Asp 31.3 µM, S/Km 0.745238, unit from Fig. S11 axis): 40.9 µM
- IC50 ([1]; IC50 (IC50 versus [S]/Km plots), Trial 1, 6-P-F-Asp 62.5 µM, S/Km 1.488095, unit from Fig. S11 axis): 34.9 µM
- IC50 ([1]; IC50 (IC50 versus [S]/Km plots), Trial 1, 6-P-F-Asp 125 µM, S/Km 2.97619, unit from Fig. S11 axis): 32.7 µM
- IC50 ([1]; IC50 (IC50 versus [S]/Km plots), Trial 1, 6-P-F-Asp 250 µM, S/Km 5.952381, unit from Fig. S11 axis): 34.1 µM
- IC50 ([1]; IC50 (IC50 versus [S]/Km plots), Trial 1, 6-P-F-Asp 500 µM, S/Km 11.90476, unit from Fig. S11 axis): 30.1 µM
- IC50 ([1]; IC50 (IC50 versus [S]/Km plots), Trial 1, 6-P-F-Asp 750 µM, S/Km 17.85714, unit from Fig. S11 axis): 33.4 µM
- IC50 ([1]; IC50 (IC50 versus [S]/Km plots), Trial 1, 6-P-F-Asp 1000 µM, S/Km 23.80952, unit from Fig. S11 axis): 32.7 µM
- IC50 ([1]; IC50 (IC50 versus [S]/Km plots), Trial 1, 6-P-F-Asp 2000 µM, S/Km 47.61905, unit from Fig. S11 axis): 32.5 µM
- IC50 ([1]; IC50 (IC50 versus [S]/Km plots), Trial 1, 6-P-F-Asp 3000 µM, S/Km 71.42857, unit from Fig. S11 axis): 39.3 µM
- IC50 ([1]; IC50 (IC50 versus [S]/Km plots), Trial 2, 6-P-F-Asp 7.38 µM, S/Km 0.175714, unit from Fig. S11 axis): 36.6 µM
- IC50 ([1]; IC50 (IC50 versus [S]/Km plots), Trial 2, 6-P-F-Asp 15.7 µM, S/Km 0.37381, unit from Fig. S11 axis): 44.8 µM
- IC50 ([1]; IC50 (IC50 versus [S]/Km plots), Trial 2, 6-P-F-Asp 31.3 µM, S/Km 0.745238, unit from Fig. S11 axis): 48.2 µM
- IC50 ([1]; IC50 (IC50 versus [S]/Km plots), Trial 2, 6-P-F-Asp 62.5 µM, S/Km 1.488095, unit from Fig. S11 axis): 48.5 µM
- IC50 ([1]; IC50 (IC50 versus [S]/Km plots), Trial 2, 6-P-F-Asp 125 µM, S/Km 2.97619, unit from Fig. S11 axis): 37.7 µM
- IC50 ([1]; IC50 (IC50 versus [S]/Km plots), Trial 2, 6-P-F-Asp 250 µM, S/Km 5.952381, unit from Fig. S11 axis): 34 µM
- IC50 ([1]; IC50 (IC50 versus [S]/Km plots), Trial 2, 6-P-F-Asp 500 µM, S/Km 11.90476, unit from Fig. S11 axis): 32.9 µM
- IC50 ([1]; IC50 (IC50 versus [S]/Km plots), Trial 2, 6-P-F-Asp 750 µM, S/Km 17.85714, unit from Fig. S11 axis): 35.9 µM
- IC50 ([1]; IC50 (IC50 versus [S]/Km plots), Trial 2, 6-P-F-Asp 1000 µM, S/Km 23.80952, unit from Fig. S11 axis): 34.9 µM
- IC50 ([1]; IC50 (IC50 versus [S]/Km plots), Trial 2, 6-P-F-Asp 2000 µM, S/Km 47.61905, unit from Fig. S11 axis): 39.2 µM
- IC50 ([1]; IC50 (IC50 versus [S]/Km plots), Trial 2, 6-P-F-Asp 3000 µM, S/Km 71.42857, unit from Fig. S11 axis): 42.2 µM
- IC50 ([1]; IC50, mean and standard deviation of all IC50 values in IC50 vs [S]/Km plot, trial shown in Fig. S11 panels M-X): 40 ± 6 µM
- Ki ([1]; K I, from Michaelis–Menten analysis of FraB at different inhibitor concentrations, average and standard error from two measurements): 28.5 ± 3.5 µM
- Ki ([1]; KI from α′ vs [I] plot, trial shown in Fig. S11 panels M-X): 25 µM
- Ki ([1]; KI from α′ vs [I] plot, trial shown in Fig. S11 panels Y-AJ): 32 µM
- K IU/K IC ratio ([1]; average (±SE), from 1/IC50 versus v o/V max plots): 0.7 ± 0.1
- mode of inhibition ([1]; kinetic analyses (Lineweaver‐Burk, α′ vs [I], IC50 vs [S]/K m, 1/IC50 vs v o/V max)): mixed‐type uncompetitive
- binding to FraB in the presence of substrate (native MS) ([2]; 3 μM FraB, 120 μM inhibitor, 600 μM 6‐P‐F‐Asp): can bind either free enzyme or the enzyme‐substrate complex
- binding to FraB by native MS (species observed) ([2]; 3 μM FraB, 120 μM inhibitor, IST 50 V, E2I/E2I2 = FraB dimer bound to one or two inhibitor copies): distinct peaks corresponding to E2I and E2I2
- type of FraB–inhibitor interaction (covalent vs noncovalent) ([2]; decrease in E2I and E2I2 with increasing IST voltage): noncovalent

Source: PMC12051030, “Identification of inhibitors of the Salmonella FraB deglycase, a drug target” (FEBS Open Bio, 2025)
